From PubChem BioAssay (NCI) come the findings set out here.

Some test systems named below: SF-295 CNS; PC-3 prostate; T-47D breast; MOLT-4 leukemia; OVCAR-4 ovarian; HS 578T breast; CAKI-1 renal.
Holding throughout (experiment): growth of human tumour cells (NCI), 48 h

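1) Cells in 96-well plates. 2) Compound, 48 h, 5 concentrations. 3) Linear interpolation between surrounding doses. 4) Unreached endpoint = highest concentration. TGI marks complete inhibition of growth.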 A value given as a limit tells only on which side of the number the result lay.

As for `COC(=O)c1c2c(cc3c1CC1(Cc4cc5c(cc4C1)CCCC5)C3)CCCC2`, the TGI with SF-295 CNS, with PC-3 prostate, in the assay on T-47D breast, in the assay on MOLT-4 leukemia, with OVCAR-4 ovarian and in the assay with HS 578T breast was over 100 µM throughout.

Regarding `O=c1[nH]c2ccccc2c(=O)n1/N=C\c1ccccc1O`, the TGI in the assay on SF-295 CNS, in the assay on PC-3 prostate, in the assay on CAKI-1 renal, with T-47D breast, in the assay with MOLT-4 leukemia and in the assay on HS 578T breast was over 100 µM throughout.

With `COC(=O)[C@]1(c2cc3ccccc3[nH]2)CC2CNC1C1OC(C)(C)OC21` (stereo partly specified), the TGI in the assay with SF-295 CNS, in the assay on PC-3 prostate, in the assay with CAKI-1 renal, with T-47D breast, with MOLT-4 leukemia and in the assay with OVCAR-4 ovarian was over 100 µM in each case.

Turning to `CCOC(=O)NC(Nc1ccc(C(=O)O)cc1)(C(F)(F)F)C(F)(F)F`, the TGI in the assay with SF-295 CNS, in the assay on PC-3 prostate, with CAKI-1 renal, with T-47D breast, in the assay on MOLT-4 leukemia and with HS 578T breast was over 100 µM throughout.

For the molecule `CC(=O)CCN1CC2CN=NC2(C#N)C1` (stereo unspecified), the TGI is over 100 µM with SF-295 CNS; over 100 µM with PC-3 prostate; over 100 µM with T-47D breast; over 56.7 µM with MOLT-4 leukemia; over 100 µM in the assay on OVCAR-4 ovarian; over 95.7 µM with HS 578T breast.

Consider `CN(CC(=O)O)c1ncc2c(n1)-c1ccccc1CC2`, for which the TGI in the assay on SF-295 CNS, in the assay with PC-3 prostate, in the assay with CAKI-1 renal, in the assay with MOLT-4 leukemia, with OVCAR-4 ovarian and in the assay on HS 578T breast was over 100 µM throughout.

Consider `CC1OC23CCCCC2C(C#N)(C#N)C1(C#N)C(=N)O3` (stereo unspecified), for which the TGI in the assay with SF-295 CNS was over 100 µM; in the assay with PC-3 prostate it was 69.2 µM; in the assay on CAKI-1 renal, 19.8 µM; in the assay with T-47D breast, 53.6 µM; in the assay with MOLT-4 leukemia it was 90.1 µM; with HS 578T breast it was 57.8 µM.

For `CC(CSc1nc2c(c(=N)n1-c1ccccc1)c(=S)n(-c1ccccc1)c(=S)n2-c1ccccc1)CN(C)C` (stereo unspecified), the TGI with SF-295 CNS is 16.7 µM; in the assay with PC-3 prostate it was 3.38 µM; in the assay on CAKI-1 renal it was 2.97 µM; in the assay on MOLT-4 leukemia it was 3.02 µM; in the assay with OVCAR-4 ovarian it was 3.2 µM; in the assay on HS 578T breast, over 28.7 µM.

In the case of `CC1CC[C@@]2(OC1)OC1C[C@H]3[C@@H]4CC=C5C[C@@H](OC6OC(CO)C(OC7OC(CO)C(O)C(O)C7O)C(O)C6OC6OC(C)C(O)C(O)C6O)CC[C@]5(C)[C@H]4CC[C@]3(C)C1[C@@H]2C` (stereo partly specified), the TGI in the assay with SF-295 CNS was found to be 5.27 µM; in the assay with PC-3 prostate, 0.93 µM; in the assay with CAKI-1 renal, 2.71 µM; in the assay on T-47D breast, 1.21 µM; in the assay with OVCAR-4 ovarian, 5.03 µM; in the assay with HS 578T breast, 1.57 µM.

As for `CC(C)(C)[C@H]1NC(=O)CN1C(=O)OCc1ccccc1`, the TGI in the assay with SF-295 CNS, with PC-3 prostate, with T-47D breast, in the assay with MOLT-4 leukemia and in the assay with OVCAR-4 ovarian was over 100 µM throughout.

Take `CCOC(=O)CC1(N)CC2c3ccccc3OC(=O)C2C(=O)N1` (stereo unspecified): the TGI in the assay with PC-3 prostate, in the assay with CAKI-1 renal, in the assay on T-47D breast, in the assay on MOLT-4 leukemia, in the assay with OVCAR-4 ovarian and with HS 578T breast was over 100 µM each time.

As to `Nc1ccc2c3c1cccc3c(=O)n1c3ccc(Cc4ccc5c(c4)nc4c6ccc(N)c7cccc(c(=O)n54)c76)cc3nc21`, the TGI with SF-295 CNS, with PC-3 prostate, in the assay with CAKI-1 renal, in the assay with MOLT-4 leukemia and with OVCAR-4 ovarian was over 100 µM each time.

As for `CC1=NN(C(=O)CC(=O)Nc2cccc(C)c2)C(=O)C1N=Nc1ccc(C(=O)O)cc1` (stereo unspecified), the TGI in the assay on SF-295 CNS, in the assay with PC-3 prostate, in the assay on CAKI-1 renal, with T-47D breast, with OVCAR-4 ovarian and with HS 578T breast was over 100 µM in each case.

For the molecule `CCOC(=O)CC1C(C(=O)OCC)=Cn2c([nH]c3cccc4cccc2c43)=C1C(=O)OCC` (stereo unspecified), the TGI in the assay on SF-295 CNS, in the assay on PC-3 prostate, in the assay with CAKI-1 renal, with T-47D breast, in the assay on MOLT-4 leukemia and in the assay on OVCAR-4 ovarian was over 100 µM each time.

Regarding `CC1CC(C)(C)CC(OCCN2CCCCC2)(c2ccccc2)C1` (stereo unspecified), the TGI in the assay on SF-295 CNS stood at 22.9 µM; in the assay on PC-3 prostate it was 25.6 µM; in the assay on CAKI-1 renal, 25.5 µM; in the assay with T-47D breast, 29.5 µM; in the assay on OVCAR-4 ovarian, 24 µM; in the assay with HS 578T breast, 32.4 µM.

For the molecule `CN(Cc1ccccc1)C(=S)S`, the TGI in the assay with SF-295 CNS was over 100 µM; with CAKI-1 renal, over 100 µM; with T-47D breast, over 100 µM; with MOLT-4 leukemia, 84.6 µM; in the assay with OVCAR-4 ovarian it was over 100 µM; in the assay on HS 578T breast, over 100 µM.

On to `C=C(C)C1CCC2(C)C1CCC1(C)C2CCC2C3(C)C4OC(OC4=O)C(C)(C)C3CCC21C` (stereo unspecified), for which the TGI in the assay with SF-295 CNS, in the assay with PC-3 prostate, in the assay on CAKI-1 renal, with T-47D breast, with MOLT-4 leukemia and with HS 578T breast was over 100 µM each time.

For `Cc1cc(Br)c(O)c(-c2cscn2)c1`, the TGI was over 100 µM in the assay with SF-295 CNS; 27.7 µM in the assay on PC-3 prostate; 62.6 µM in the assay on CAKI-1 renal; 28.7 µM in the assay on OVCAR-4 ovarian; 52.4 µM in the assay with HS 578T breast.

As to `FC(F)(Sc1ncccn1)c1nc2ccccc2o1`, the TGI with SF-295 CNS, in the assay on PC-3 prostate, in the assay with CAKI-1 renal, with T-47D breast, with MOLT-4 leukemia and in the assay on OVCAR-4 ovarian was over 100 µM in each case.

As to `N#CC(c1cc(Cl)ncn1)c1nc2cc(C(F)(F)F)ccc2s1` (stereo unspecified), the TGI with SF-295 CNS was 29.2 µM; in the assay with CAKI-1 renal, over 100 µM; in the assay with T-47D breast it was over 100 µM; in the assay with MOLT-4 leukemia, over 100 µM; with OVCAR-4 ovarian, 19.5 µM.
